# Numbers after ± are expanded uncertainties.
# Experiments:
# [1] = excess molar enthalpy (molar enthalpy of mixing); xn = mol fraction of the nth substance listed; details: 298.15 K, 101.3 kPa, Liquid, Calvet calorimetry
# [2] = 298.15 K; 101.33 kPa; Liquid; Vibrating tube method
# [3] = refractive index (Na D-line) (dimensionless); details: 298.15 K; 101.33 kPa; Liquid; Standard Abbe refractometry
compound,measurement,setting,value
CCC(C)(C)O [2-methylbutan-2-ol] + CCO,excess molar enthalpy,[1]; x1 = 0.0898,-0.249 ± 0.0027 kJ/mol
same,excess molar enthalpy,[1]; x1 = 0.1796,-0.4719 ± 0.0044 kJ/mol
same,excess molar enthalpy,[1]; x1 = 0.2807,-0.7056 ± 0.0062 kJ/mol
same,excess molar enthalpy,[1]; x1 = 0.3707,-0.853 ± 0.0074 kJ/mol
same,excess molar enthalpy,[1]; x1 = 0.4607,-0.95 ± 0.0081 kJ/mol
same,excess molar enthalpy,[1]; x1 = 0.5507,-0.973 ± 0.0083 kJ/mol
same,excess molar enthalpy,[1]; x1 = 0.6406,-0.9114 ± 0.0078 kJ/mol
same,excess molar enthalpy,[1]; x1 = 0.7306,-0.7709 ± 0.0067 kJ/mol
same,excess molar enthalpy,[1]; x1 = 0.8205,-0.5446 ± 0.005 kJ/mol
same,excess molar enthalpy,[1]; x1 = 0.9103,-0.271 ± 0.0029 kJ/mol
CCC(C)(C)O [2-methylbutan-2-ol] + CCCCO,excess molar enthalpy,[1]; x1 = 0.09,-0.268 ± 0.0028 kJ/mol
same,excess molar enthalpy,[1]; x1 = 0.1801,-0.4779 ± 0.0045 kJ/mol
same,excess molar enthalpy,[1]; x1 = 0.2702,-0.6497 ± 0.0058 kJ/mol
same,excess molar enthalpy,[1]; x1 = 0.3707,-0.75 ± 0.0066 kJ/mol
same,excess molar enthalpy,[1]; x1 = 0.4609,-0.8 ± 0.007 kJ/mol
same,excess molar enthalpy,[1]; x1 = 0.551,-0.7874 ± 0.0069 kJ/mol
same,excess molar enthalpy,[1]; x1 = 0.6412,-0.7304 ± 0.0064 kJ/mol
same,excess molar enthalpy,[1]; x1 = 0.7313,-0.6067 ± 0.0055 kJ/mol
same,excess molar enthalpy,[1]; x1 = 0.8198,-0.4267 ± 0.0041 kJ/mol
same,excess molar enthalpy,[1]; x1 = 0.9099,-0.213 ± 0.0024 kJ/mol
CCC(C)(C)O [2-methylbutan-2-ol] + CCCCCO,excess molar enthalpy,[1]; x1 = 0.0899,-0.209 ± 0.0024 kJ/mol
same,excess molar enthalpy,[1]; x1 = 0.18,-0.4128 ± 0.004 kJ/mol
same,excess molar enthalpy,[1]; x1 = 0.27,-0.5687 ± 0.0052 kJ/mol
same,excess molar enthalpy,[1]; x1 = 0.3664,-0.649 ± 0.0058 kJ/mol
same,excess molar enthalpy,[1]; x1 = 0.4566,-0.6845 ± 0.0061 kJ/mol
same,excess molar enthalpy,[1]; x1 = 0.5468,-0.6768 ± 0.006 kJ/mol
same,excess molar enthalpy,[1]; x1 = 0.6372,-0.634 ± 0.0057 kJ/mol
same,excess molar enthalpy,[1]; x1 = 0.7278,-0.5306 ± 0.0049 kJ/mol
same,excess molar enthalpy,[1]; x1 = 0.8185,-0.3864 ± 0.0038 kJ/mol
same,excess molar enthalpy,[1]; x1 = 0.9091,-0.206 ± 0.0024 kJ/mol
CCCCCO [pentan-1-ol],mass density,[2],810.82 ± 0.31 kg/m3
same,refractive index,[3],1.4086 ± 0.0005
CO [methanol],mass density,[2],786.42 ± 0.31 kg/m3
same,refractive index,[3],1.3264 ± 0.0005
CCC(C)(C)O [2-methylbutan-2-ol] + CO,excess molar enthalpy,[1]; x1 = 0.0908,-0.256 ± 0.0028 kJ/mol
same,excess molar enthalpy,[1]; x1 = 0.1814,-0.5223 ± 0.0048 kJ/mol
same,excess molar enthalpy,[1]; x1 = 0.2731,-0.8036 ± 0.007 kJ/mol
same,excess molar enthalpy,[1]; x1 = 0.3644,-1.045 ± 0.0089 kJ/mol
same,excess molar enthalpy,[1]; x1 = 0.4608,-1.2 ± 0.01 kJ/mol
same,excess molar enthalpy,[1]; x1 = 0.5513,-1.268 ± 0.011 kJ/mol
same,excess molar enthalpy,[1]; x1 = 0.6416,-1.216 ± 0.01 kJ/mol
same,excess molar enthalpy,[1]; x1 = 0.7319,-1.07 ± 0.0091 kJ/mol
same,excess molar enthalpy,[1]; x1 = 0.8195,-0.7997 ± 0.007 kJ/mol
same,excess molar enthalpy,[1]; x1 = 0.9101,-0.4219 ± 0.004 kJ/mol
CCO [ethanol],mass density,[2],785.22 ± 0.31 kg/m3
same,refractive index,[3],1.3591 ± 0.0005
CCC(C)(C)O [2-methylbutan-2-ol] + CCCO,excess molar enthalpy,[1]; x1 = 0.09,-0.254 ± 0.0027 kJ/mol
same,excess molar enthalpy,[1]; x1 = 0.1801,-0.4585 ± 0.0043 kJ/mol
same,excess molar enthalpy,[1]; x1 = 0.2802,-0.6561 ± 0.0059 kJ/mol
same,excess molar enthalpy,[1]; x1 = 0.3701,-0.786 ± 0.0069 kJ/mol
same,excess molar enthalpy,[1]; x1 = 0.4599,-0.8588 ± 0.0074 kJ/mol
same,excess molar enthalpy,[1]; x1 = 0.5497,-0.8538 ± 0.0074 kJ/mol
same,excess molar enthalpy,[1]; x1 = 0.6395,-0.8037 ± 0.007 kJ/mol
same,excess molar enthalpy,[1]; x1 = 0.7292,-0.6715 ± 0.006 kJ/mol
same,excess molar enthalpy,[1]; x1 = 0.8189,-0.4732 ± 0.0044 kJ/mol
same,excess molar enthalpy,[1]; x1 = 0.9088,-0.233 ± 0.0026 kJ/mol
CCC(C)(C)O [2-methylbutan-2-ol],mass density,[2],804.8 ± 0.31 kg/m3
same,refractive index,[3],1.4019 ± 0.0005
CCCCO [butan-1-ol],mass density,[2],805.61 ± 0.31 kg/m3
same,refractive index,[3],1.3973 ± 0.0005
CCCO [propan-1-ol],mass density,[2],799.46 ± 0.31 kg/m3
same,refractive index,[3],1.383 ± 0.0005
